The conditions of data set [1]: dosed either orally or directly into the colon of a mammal; cited from earlier work.
The nature of data set [2]: Flow characterization of dry powders and granulations (density, Carr, Hausner, Flodex). The class given is physicochemical. To be noted: ungranulated, no water. An excerpt:
The flow of dry powders was characterized using a FLODEX™ Powder Flowability Index Test Instrument (Hanson Research Corporation, Chatsworth, Calif.). The instrument was equipped with a cylindrical metal reservoir, which holds the test powder prior to flow testing. The cylindrical reservoir has an inside diameter of 5.7 cm and a length of […]. The bottom end of the reservoir can be closed with removable metal discs. Each disc has a round orifice centered in the disc. Orifice diameters range from 4 mm to 10 mm in 1 mm increments, and from 10 mm to 34 mm in 2 mm increments. Prior to flow testing, the orifice is blocked. Powder is then placed over the blocked orifice. When the orifice is unblocked, powder can flow through the orifice under the force of gravity if the orifice diameter is sufficiently large. Powder that flows through small orifices is considered to have flow properties useful for tableting. For example, a Flodex measurement (Flodex) of less than about 24 mm is typically used for high-speed tableting operations at commercial scale. A Flodex less than about 20 mm is useful for high-speed tableting operations. A Flodex of 18 mm or less is considered especially useful for high throughput tableting operations.
The Flodex is determined by first gently filling the reservoir while the orifice at the bottom is blocked with approximately 70 cc of test powder, while avoiding severe piling, and without vibrating or tapping the powder bed. Next, the orifice is unblocked. This can be accomplished by opening a shutter that is supplied with the instrument. Alternatively, if a shutter is not used, the powder-filled reservoir fitted with a disc can be set on a dry, flat surface to block the orifice. Then, slowly and evenly, the reservoir is lifted to allow the powders to flow. In either procedure, if the powder flows through the orifice, a clear channel is left within the powder bed. […] The flow test is conducted with various orifice sizes until the minimum orifice size for good flow is identified, which is referred to as the Flodex.
The impact of the amount of water used during high shear wet granulation on the strength of granules was determined. Granulations containing either 98 wt-% compound (1), 1 wt-% METHOCELT™-E4M and 1 wt-% SLS, or 97 wt-% compound (1) and 3 wt-% METHOCEL™-E4M, were prepared using from 20 wt-% to 30 wt-% water, dried, and the granule strength measured by determining the air pressure at which the particles began to fracture using a Sympatec particle analyzer (QicPic/RODOS-L/VIBRI-L, Sympatec GmbH, Clausthal-Zellerfeld, DE).
The Main Blend contained 98 wt-% compound (1), 1 wt-% METHOCELT™-E4M, and 1 wt-% SLS. Blend D contained 90 wt-% granules blended with 8 wt-% METHOCEL™-K100M and 2 wt-% magnesium stearate, and Blend E contained 89 wt-% granules blended with 8 wt-% METHOCEL™-K100M and 3 wt-% magnesium stearate and were prepared as described in Example 4.

Structures are written as SMILES.

For `CC(OC(=O)NCC1(CC(=O)O)CCCCC1)OC(=O)C(C)C` (stereo not drawn) [Compound (1), 1-([(α-Isobutanoyloxyethoxy)carbonyl]aminomethyl)-1-cyclohexane acetic acid], the bioavailability as gabapentin result in data set [1] is given as “high bioavailability as gabapentin”. In data set [2], the “Bulk Density” value is on record as 0.329 gm/mL, the “Carr Index” value amounted to 27.0, the Flodex is reported as over 34 mm and the “Hausner Ratio” value worked out at 1.37. Also, the “Tap Density” value in data set [2] stood at 0.450 gm/mL.

The record behind these values is patent publication US20100226981A1, “ORAL DOSAGE FORMS HAVING A HIGH LOADING OF A GABAPENTIN PRODRUG” (XenoPort, Inc., priority 2009, published 2010).
